From publication PMC10698694 (ACS chemical biology, 2023) come the findings set out here.

Structures are written as SMILES.

What all share (assay): AlphaScreen competition
Common to all, as to format: binding

The target of assay [1] is BPTF bromodomain (BPTF BD) (Homo sapiens, UniProt Q12830).
For assay [2], the target named is T1, BRD9 bromodomain (BRD9 BD) (Homo sapiens, UniProt Q9H8M2).
T1 sequence (Q9H8M2 134-239 limits assumed): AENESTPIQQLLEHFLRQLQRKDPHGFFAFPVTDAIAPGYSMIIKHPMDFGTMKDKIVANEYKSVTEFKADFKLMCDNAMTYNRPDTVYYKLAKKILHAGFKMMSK

Assay [3] deals with CECR2 bromodomain (CECR2 BD) (Homo sapiens, UniProt Q9BXF3).

Regarding `CN(CCCOc1ccc(-c2cc(NCCCn3cccn3)nc(S(C)(=O)=O)n2)cc1)CCOCCOCCOc1cccc2c1C(=O)N(C1CCC(=O)NC1=O)C2=O` (stereo not shown) [compound 10, 4-(2-(2-(2-((3-(4-(6-((3-(1H-Pyrazol-1-yl)propyl)amino)-2-(methylsulfonyl)pyrimidin-4-yl)phenoxy)propyl)(methyl)-amino)ethoxy)ethoxy)ethoxy)-2-(2,6-dioxopiperidin-3-yl)-isoindoline-1,3-dione], in assay [1], the concentration for half-maximal inhibition (IC50) (commonly the midpoint of a concentration-inhibition curve) amounted to 360 nM.
Regarding `CS(=O)(=O)c1nc(NCCCn2cccn2)cc(-c2ccc(OCCCN3CCN(CCCCCCOc4cccc5c4C(=O)N(C4CCC(=O)NC4=O)C5=O)CC3)cc2)n1` (stereo not shown) [compound 8, 4-((6-(4-(3-(4-(6-((3-(1H-Pyrazol-1-yl)propyl)amino)-2-(methylsulfonyl)pyrimidin-4-yl)phenoxy)propyl)piperazin-1-yl)hexyl)oxy)-2-(2,6-dioxopiperidin-3-yl)isoindoline-1,3-dione], the results for the IC50 in assay [2], in assay [3] and in assay [1] were 844 nM, 24 nM and 146 ± 12 nM, respectively.
In the same order, the values of `CS(=O)(=O)c1nc(NCCCn2cccn2)cc(-c2ccc(OCCCN3CCN(CCOCCOCCOc4cccc5c4C(=O)N(C4CCC(=O)NC4=O)C5=O)CC3)cc2)n1` (stereo not shown) [compound 9, 4-(2-(2-(2-(4-(3-(4-(6-((3-(1H-Pyrazol-1-yl)propyl)amino)-2-(methylsulfonyl)pyrimidin-4-yl)phenoxy)propyl)piperazin-1-yl)ethoxy)ethoxy)ethoxy)-2-(2,6-dioxopiperidin-3-yl)-isoindoline-1,3-dione] are 996 nM, 33 nM and 267 ± 8 nM.
